These results are taken from US10370405B2, “C-3 novel triterpenone with C-28 amide derivatives as HIV inhibitors” (HETERO LABS LIMITED, priority 2016, dated 2019).

For one data set, the system named is HIV-1 strain 92HT599. Briefly: Antiviral activity: p24 estimation in MT2 cells infected with HIV-1. To be noted: for IC50: Human immunodeficiency virus 1, MT2; for inhibition at 0.01 µM / inhibition at 0.1 µM / inhibition at 1 µM: Human immunodeficiency virus 1, MT2 cells, HIV-1 92HT599, p24, ~96 hours. The format is cell-based. How it is done:
MT2 cells were infected with HIV-1 strain 92HT599 (10 TCID 50/30000 cells). The infected cells were plated at the concentration of ˜30 000 cells per well in 96 well plate. Test compound was added to the micro plate in defined format with the final concentration of DMSO (vehicle) is not more than 1%. Incubation was carried out in CO2 incubator for ˜96 hours for viral infection. At the end of incubation period an aliquot from each well was taken for p24 estimation. The quantitation of p24 is an index for antiviral activity of the compound. Percent inhibition was calculated with reference to control values (vehicle controls). P-24 estimation was carried out using Advance biosciences kit as per the procedure detailed by supplier.

[1] abbreviates: 0% serum, read-out: Antiviral activity IC50 (nM) 0%.
Where [2] appears, read: read-out: Antiviral activity IC50 (nM) 40% serum.

Read-outs that look alike come from different tables or passages of the source.

Description for in vitro: On day 1 calculate the number of cells required for the assay and seed 3×10^4 cells in 200 μl per well. Weigh the compound and dissolve it in DMSO to get 10 mM stock which is further diluted to 3 mM and 1 mM. The drugs from these stocks were added to plate to get final concentration of 100 μM, 30 μM and 10 μM. […] Incubate for 4 days in 5% CO2 incubator at 37° C. On day 4, 100 μl of medium was removed from each well without disturbing the cells. Add 10 μl of MTT reagent and incubate for 4 hours at 5% CO2 incubator at 37° C. for formation of crystals. Add 200 μl of 0.1N acidic isopropanol to dissolve the crystals and read the plate at 590 nm.

The term IC50 denotes the concentration that gives 50% inhibition. In general, inhibition refers to the relative decrease from the control value, in per cent. For orientation: viability means a per cent measure of how many cells are alive, often set against a control. For `CC(C)C1=C2[C@H]3CC[C@@H]4[C@@]5(C)CC[C@H](OC(=O)[C@H]6C[C@@H](C(=O)O)C6(C)C)C(C)(C)[C@@H]5CC[C@@]4(C)[C@]3(C)CC[C@@]2(C(=O)N2CCC[C@H]2CN2CCC[C@H]2CO)CC1=O` [Example 5, (1R,3S)-3-((((3aR,5aR,5bR,7aR,9S,11aR,11bR,13aS)-3a-((S)-2-(((S)-2-(hydroxymethyl)pyrrolidin-1-yl)methyl)pyrrolidine-1-carbonyl)-1-isopropyl-5a,5b,8,8,11a-pentamethyl-2-oxo-3,3a,4,5,5a,5b,6,7,7a,8,9,10,11,11a,11b,12,13,13a-octadecahydro-2H-cyclopenta[a]chrysen-9-yl)oxy)carbonyl)-2,2-dimethlcyclobutane-1-carboxylic acid], in the data set on HIV-1 strain 92HT599 (setting [1]), the IC50 was 0.93 nM. Further, the half-inhibitory concentration (IC50) with HIV-1 strain 92HT599 (setting [2]) is 25.5 nM. Besides, in the data set with HIV-1 strain 92HT599, the inhibition at 0.01 µM was 100%, the inhibition at 0.1 µM is 100% and the inhibition at 1 µM was 100%. In the data set “in vitro”, this compound had a viability at 4 days, 10 μM of 70%; a viability at 4 days, 30 μM of 70%; a viability at 4 days, 100 μM of 73%.
As for `CC(C)C1=C2[C@H]3CC[C@@H]4[C@@]5(C)CC[C@H](OC(=O)[C@H]6C[C@@H](C(=O)O)C6(C)C)C(C)(C)[C@@H]5CC[C@@]4(C)[C@]3(C)CC[C@@]2(C(=O)N2CC[C@@H](N3CCCC3)C2)CC1=O` [Example 4, (1R,3S)-3-((((3aR,5aR,5bR,7aR,9S,11aR,11bR,13aS)-3a-((R)-[1,3′-bipyrrolidine]-1′-carbonyl)-1-isopropyl-5a,5b,8,8,11a-pentamethyl-2-oxo-3,3a,4,5,5a,5b,6,7,7a,8,9,10,11,11a,11b,12,13,13a-octadecahydro-2H-cyclopenta[a]chrysen-9-yl)oxy)carbonyl)-2,2-dimethylcyclobutane-1-carboxylic acid], in the data set on HIV-1 strain 92HT599 (setting [1]), the IC50 was 0.68 nM. In addition, the IC50 in the data set with HIV-1 strain 92HT599 (setting [2]) was 54.5 nM. Also, in the data set on HIV-1 strain 92HT599, the inhibition at 0.01 µM was 100%, the inhibition at 0.1 µM is 100% and the inhibition at 1 µM is 100%. Further, in “in vitro”, the viability at 4 days, 10 μM amounted to 62%; the viability at 4 days, 30 μM was determined as 6%; the viability at 4 days, 100 μM was found to be 2%.
For `CC(C)C1=C2[C@H]3CC[C@@H]4[C@@]5(C)CC[C@H](OC(=O)[C@H]6C[C@@H](C(=O)O)C6(C)C)C(C)(C)[C@@H]5CC[C@@]4(C)[C@]3(C)CC[C@@]2(C(=O)N2CCC[C@H]2CN2CCC(F)CC2)CC1=O` [Example 10, (1R,3S)-3-((((3aR,5aR,5bR,7aR,9S,11aR,11bR,13aS)-3a-((S)-2-((4-fluoropiperidin-1-yl)methyl)pyrrolidine-1-carbonyl)-1-isopropyl-5a,5b,8,8,11a-pentamethyl-2-oxo-3,3a,4,5,5a,5b,6,7,7a,8,9,10,11,11a,11b,12,13,13a-octadecahydro-2H-cyclopenta[a]chrysen-9-yl)oxy)carbonyl)-2,2-dimethylcyclobutane-1-carboxylic acid], the IC50 with HIV-1 strain 92HT599 (setting [1]) was 1.06 nM. For the same compound, in the data set with HIV-1 strain 92HT599 (setting [2]), the IC50 was 0.93 nM. In addition, in the data set with HIV-1 strain 92HT599, the inhibition at 0.01 µM was 97%, the inhibition at 0.1 µM is 100% and the inhibition at 1 µM was 100%. Also, in the data set “in vitro”, the viability at 4 days, 10 μM was determined as 31%; the viability at 4 days, 30 μM came out at 4%; the viability at 4 days, 100 μM is 4%.
